This passage reports GI50 and TGI results from PubChem BioAssay (NCI).

Some test systems named below: SF-539 CNS; RXF 393 renal; SR leukemia; NCI-H522 lung; UACC-257 melanoma; COLO 205 colon; OVCAR-3 ovarian; ACHN renal; CCRF-CEM leukemia; MOLT-4 leukemia.
Common to all, as to experiment: DTP human tumour cell line panel, 48 h

Where “and” joins values, the source holds several entries; their conditions need not be identical. Equal values may be shown once.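 Test compounds were applied to cells in 96-well plates for 48 hours at 5 doses. GI50: concentration for 50% inhibition of growth. TGI: concentration producing complete growth inhibition.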

Take `COc1cc2c3c(n(CCCNCC(OC)OC)c(=O)c2cc1OC)-c1cc2c(cc1C3=O)OCO2`: the GI50 in the assay with SF-539 CNS is 2.42 µM; in the assay on RXF 393 renal, 3.84 µM; in the assay on SR leukemia, < 0.01 µM; in the assay with NCI-H522 lung, 18.2 µM; with UACC-257 melanoma, 33.3 µM; in the assay on COLO 205 colon it was 14 µM. Besides, the GI50 with OVCAR-3 ovarian is 3.81 µM; in the assay on ACHN renal, 5.34 µM; in the assay on CCRF-CEM leukemia it was < 0.01 µM; in the assay with MOLT-4 leukemia it was < 0.01 µM. Further, the TGI in the assay on SF-539 CNS is 24.9 µM; in the assay with RXF 393 renal, 21.6 µM; in the assay on NCI-H522 lung, > 100 µM; in the assay with UACC-257 melanoma, > 89.2 µM; in the assay on COLO 205 colon, > 61.1 µM; in the assay with OVCAR-3 ovarian it was 32.7 µM. Also, the TGI in the assay with ACHN renal is > 37.4 µM; in the assay with CCRF-CEM leukemia, 1.8 µM; in the assay on MOLT-4 leukemia, 1.14 µM.
As for `COc1cc(C(O)c2nc3ccccc3s2)cc(OC)c1OC` (centres undefined), the GI50 with SF-539 CNS was > 100 µM; in the assay with RXF 393 renal, > 100 µM; with SR leukemia, 9.01 µM; in the assay with NCI-H522 lung, 29.2 µM; in the assay with UACC-257 melanoma, 26 µM; in the assay on COLO 205 colon it was > 100 µM. Also, the GI50 is 88.9 µM in the assay on OVCAR-3 ovarian, 65.5 µM in the assay with ACHN renal, 49.5 µM in the assay with CCRF-CEM leukemia and 18.1 µM in the assay with MOLT-4 leukemia. For the same molecule, the TGI in the assay on SF-539 CNS, in the assay on RXF 393 renal, with SR leukemia, in the assay on NCI-H522 lung, in the assay with UACC-257 melanoma and in the assay with COLO 205 colon was > 100 µM in each case. The TGI with OVCAR-3 ovarian, in the assay on ACHN renal, with CCRF-CEM leukemia and with MOLT-4 leukemia was > 100 µM each time.
With `COc1ccc(C(=O)COc2cccc(/C=C3\CSc4ccccc4C3=O)c2)cc1`, the GI50 with SF-539 CNS is 2.95 µM; in the assay with RXF 393 renal, 2.42 µM; with SR leukemia it was 0.395 µM; in the assay with NCI-H522 lung, 1.73 µM; in the assay on UACC-257 melanoma, 2.49 µM; in the assay with COLO 205 colon it was 2.93 µM. Further, the GI50 is 1.88 µM in the assay with OVCAR-3 ovarian, 1.93 µM in the assay with ACHN renal, 0.313 µM with CCRF-CEM leukemia and 0.913 µM in the assay on MOLT-4 leukemia. Also, the TGI was determined as 8.51 µM in the assay with SF-539 CNS; 5.39 µM in the assay on RXF 393 renal; 3.86 µM in the assay on NCI-H522 lung; 6.12 µM with UACC-257 melanoma; 6.95 µM with COLO 205 colon; 3.65 µM in the assay on OVCAR-3 ovarian. In addition, the TGI in the assay with ACHN renal is 3.86 µM; with CCRF-CEM leukemia, 1.09 µM; with MOLT-4 leukemia, 19.3 µM.
Turning to `O=C1/C(=C/c2ccccc2F)CNC/C1=C\c1ccccc1F`, the GI50 in the assay on SF-539 CNS is 0.269 µM and 0.87 µM; in the assay with RXF 393 renal, 0.385 µM and 0.728 µM; with SR leukemia it was 0.0772 µM and 0.245 µM; in the assay on NCI-H522 lung, 0.772 µM and 1.3 µM; with UACC-257 melanoma, 1.62 µM and 1.73 µM; in the assay with COLO 205 colon, 0.82 µM and 0.584 µM. Further, the GI50 in the assay with OVCAR-3 ovarian was 0.89 µM and 0.309 µM; in the assay on ACHN renal it was 4.86 µM and 0.779 µM; in the assay on CCRF-CEM leukemia, 0.193 µM and 0.314 µM; in the assay with MOLT-4 leukemia it was 0.425 µM and 0.738 µM. The TGI in the assay on SF-539 CNS is 0.828 µM and 2.99 µM; with RXF 393 renal it was 1.12 µM and 1.87 µM; in the assay on SR leukemia it was 0.361 µM and 0.813 µM; with NCI-H522 lung, 2.73 µM and 2.8 µM; with UACC-257 melanoma, 4.16 µM and 3.95 µM; with COLO 205 colon, 2.57 µM and 1.82 µM. The TGI with OVCAR-3 ovarian was 3.22 µM and 0.805 µM; in the assay with ACHN renal, 8.55 µM and 2.58 µM; with CCRF-CEM leukemia, 3.38 µM and 1.61 µM; in the assay with MOLT-4 leukemia it was 1.76 µM and 3.13 µM.
`O=C1c2ccc3c4c5ccc(c24)C(=O)N1CCCOCCCCOCCCNCc1ccc(cc1)CNCCCOCCCCOCCCN(C3=O)C5=O`: the GI50 was 0.871 µM in the assay on SF-539 CNS; 0.764 µM with RXF 393 renal; 0.621 µM with SR leukemia; 0.854 µM in the assay with NCI-H522 lung; 0.989 µM in the assay with UACC-257 melanoma; 0.531 µM with COLO 205 colon. The GI50 in the assay with OVCAR-3 ovarian is 0.766 µM; with ACHN renal, 0.859 µM; with CCRF-CEM leukemia, 0.889 µM; in the assay with MOLT-4 leukemia, 0.981 µM. For the same molecule, the total growth inhibition concentration (TGI) with SF-539 CNS turned out to be 1.64 µM; in the assay on RXF 393 renal, 1.57 µM; in the assay on SR leukemia, 2.62 µM; with NCI-H522 lung it was 1.79 µM; in the assay with UACC-257 melanoma, 1.98 µM; with COLO 205 colon, 1.26 µM. Moreover, the TGI in the assay on OVCAR-3 ovarian stood at 1.79 µM; in the assay on ACHN renal, 1.57 µM; in the assay with CCRF-CEM leukemia it was 2.84 µM; in the assay with MOLT-4 leukemia, 2.62 µM.
In the case of `C=C(C)C(=O)OC1CC2=CC(CC3(C)OC3C3OC(=O)C(=C)C13)OC2=O` (centres undefined), the TGI with SF-539 CNS was determined as 18.3 µM; with RXF 393 renal, 9.37 µM; in the assay on SR leukemia, 15.7 µM; with NCI-H522 lung it was 4.18 µM; in the assay on UACC-257 melanoma, 13.7 µM; in the assay with COLO 205 colon, 7.08 µM. The TGI was 25.4 µM in the assay on OVCAR-3 ovarian, 16.7 µM with ACHN renal, 5.59 µM in the assay with CCRF-CEM leukemia and 15 µM in the assay on MOLT-4 leukemia. Besides, the GI50 in the assay on CCRF-CEM leukemia was 1.63 µM.
In the case of `Cn1c(=O)c(Oc2ccc(F)cc2F)cc2cnc(NC(CO)CO)nc21`, the GI50 in the assay with SF-539 CNS, in the assay on RXF 393 renal, with SR leukemia, in the assay with NCI-H522 lung, in the assay on UACC-257 melanoma and in the assay with COLO 205 colon was > 25 µM throughout. The GI50 in the assay on OVCAR-3 ovarian, in the assay on ACHN renal, with CCRF-CEM leukemia and in the assay on MOLT-4 leukemia was > 25 µM throughout. For the same molecule, the TGI in the assay on SF-539 CNS, in the assay on RXF 393 renal, in the assay on SR leukemia, in the assay with NCI-H522 lung, with UACC-257 melanoma and in the assay on COLO 205 colon was > 25 µM in each case. Further, the total growth inhibition concentration (TGI) in the assay on OVCAR-3 ovarian, in the assay on ACHN renal, with CCRF-CEM leukemia and in the assay on MOLT-4 leukemia was > 25 µM throughout.
For the molecule `CN(C)CCNC(=O)c1ccc(C(=O)NCCN(C)C)c2nc3ccccc3cc12`, the TGI in the assay on SF-539 CNS is 2.01 µM; in the assay on RXF 393 renal, 2.09 µM; in the assay on SR leukemia, 2.49 µM; with NCI-H522 lung it was 1.93 µM; in the assay with UACC-257 melanoma it was 4.47 µM; in the assay on COLO 205 colon, 2.39 µM. Besides, the TGI in the assay with OVCAR-3 ovarian amounted to 9.91 µM; in the assay with ACHN renal it was 8.58 µM; with CCRF-CEM leukemia, 10.2 µM; with MOLT-4 leukemia, 1.56 µM.
In the case of `C/C([O-])=C1\Cc2ccccc2C1=O.C/C([O-])=C1\Cc2ccccc2C1=O.CC[O-].CC[O-].[Ti+4]`, the GI50 in the assay with SF-539 CNS is 13.6 µM; in the assay on RXF 393 renal it was 7.3 µM; in the assay on SR leukemia it was 19.1 µM; in the assay with NCI-H522 lung it was 14.2 µM; in the assay with UACC-257 melanoma it was 38.6 µM; with COLO 205 colon it was 27.4 µM. For the same molecule, the GI50 was 24 µM in the assay on OVCAR-3 ovarian, 19.1 µM in the assay with ACHN renal, 13.9 µM in the assay on CCRF-CEM leukemia and 16.5 µM in the assay with MOLT-4 leukemia. The concentration for total growth inhibition (TGI) in the assay with SF-539 CNS is 33.1 µM; in the assay with RXF 393 renal it was 21.9 µM; with SR leukemia it was > 79.9 µM; in the assay on NCI-H522 lung, 47.6 µM; in the assay on UACC-257 melanoma, > 100 µM; in the assay on COLO 205 colon, 67.4 µM. Moreover, the TGI is > 100 µM with OVCAR-3 ovarian, > 92.2 µM with ACHN renal, > 70.2 µM in the assay on CCRF-CEM leukemia and > 46.4 µM with MOLT-4 leukemia.
In the case of `Nc1ncnc2c1ncn2CC(O)C(=O)O` (centres undefined), the TGI in the assay with SF-539 CNS, in the assay on RXF 393 renal, with SR leukemia, in the assay with NCI-H522 lung, with UACC-257 melanoma and in the assay with COLO 205 colon was > 100 µM each time. For the same molecule, the TGI with OVCAR-3 ovarian, in the assay on ACHN renal, in the assay on CCRF-CEM leukemia and in the assay with MOLT-4 leukemia was > 100 µM each time.
As to `CCc1cccc2c3c(sc12)C(c1ccc(Cl)cc1)C(C#N)=C(N)O3` (centres undefined), the GI50 is 0.36 µM in the assay with SF-539 CNS; 0.258 µM with RXF 393 renal; 0.414 µM in the assay on SR leukemia; 0.338 µM with NCI-H522 lung; 8.64 µM in the assay on UACC-257 melanoma; 0.81 µM with COLO 205 colon. Also, the GI50 with OVCAR-3 ovarian is 0.384 µM; with ACHN renal, 0.622 µM; with CCRF-CEM leukemia, 0.391 µM; with MOLT-4 leukemia, 0.59 µM. Besides, the TGI with SF-539 CNS was 1.56 µM; in the assay on RXF 393 renal, 0.976 µM; in the assay with SR leukemia, 31.8 µM; in the assay with NCI-H522 lung it was 4.39 µM; in the assay with UACC-257 melanoma, 33.1 µM; in the assay on COLO 205 colon it was 6.27 µM. Further, the TGI in the assay with OVCAR-3 ovarian was 2.67 µM; in the assay with ACHN renal, 14.3 µM; in the assay with CCRF-CEM leukemia, 21.4 µM; in the assay with MOLT-4 leukemia, 27.6 µM.
